# Assay results from article PMC8632988, “Inhibition of SYK and cSrc kinases can protect bone and cartilage in preclinical models of osteoarthritis and rheumatoid arthritis” (Scientific Reports, 2021).
# Values joined by “and” are separate entries in the source; they are usually repeats but may differ in a detail not shown here. Identical values can stand only once. Like-named read-outs stand apart in the source and are kept apart here.
# Columns and labels:
# [1] = system: B cells in human whole blood; assay: B-cell activation in human whole blood; assay type: cell-based; conditions: anti-IgD stimulation, 16 h, read-out: IC50, BCR-dependent (anti-IgD) activation of B cells
# Description: The whole blood assay was performed at N. N. Blokhin National Medical Research Center of Oncology (NMRCO), Russia and approved by NMRCO ethics committee. Informed consent was obtained from all subjects. Red blood cells were lysed by incubation with NH4Cl buffer (0.8% NH4Cl and 0.1% EDTA in distilled water) for 5 min at 37 °C and were precipitated by centrifugation (1500 rpm). The precipitates were resuspended in RPMI-1640 with 10% human serum and 2 mM L-glutamine, after that the cells were again precipitated by analogous centrifugation and resuspended in RPMI-1640. […] Blood was then stained directly with PE-conjugated anti-CD69 (dilution 1:10) and APC-conjugated anti-CD19 (dilution 1:20) antibodies for 20 min at 4 °C. After that cells were precipitated by centrifugation (1500 rpm, 4 °C) and washed twice with phosphate-buffered saline (PBS). The cells were resuspended in PBS containing 1% BSA and subjected to flow cytometry on BD FACS Canto II (BD Biosciences, USA). The number of active cells was estimated as a ratio of CD69-positive cells bearing a marker of CD19 cells, or as a mean fluorescence intensity (MFI) of CD69 + cells after gating on the CD19-positive cells. For dose–response curve see Fig. S2.
# [2] = Tissue distribution after single oral administration in rats; assay type: in vivo, rat; conditions: for Bone concentration / Joint concentration / Kidney concentration / Liver concentration / concentration at 2 h / concentration at 8 h / concentration at 24 h / Muscle concentration / Prostate concentration / Spleen concentration: 100 mg/kg; for Kp / concentration at 2 h / concentration at 8 h / concentration at 24 h / Cmax / Tmax / AUC / AUC(0-inf) / half-life: rat; for concentration at 2 h / concentration at 8 h / concentration at 24 h: po; for AUC: read-out: AUC24; for half-life: read-out: Terminal t1/2 (converted)
# Description: Experiments were performed at ChemPartner, Shanghai, China and approved by Institutional Ethics Committee (IEC) of ChemPartner. Male Wistar 10–12 weeks old rats with body weights of 185–220 g and male New Zealand rabbits with body weights of 2.0–2.3 kg were purchased from Shanghai SLAC Laboratory Animal Co., Ltd. MT-SYK-03 was administered to the three groups of rats (six rats per group) via oral gavage at 10 mL/kg concentration, and in rabbits 5 mL/kg concentration. Blood samples were kept on ice and centrifuged (2000 g, 4 ℃, 5 min) within 15 min post sampling.
# [3] = bone, 100 mg/kg PO, male Wistar rats, Estimated Value
# [4] = joint, 100 mg/kg PO, male Wistar rats, Estimated Value
# [5] = kidney, 100 mg/kg PO, male Wistar rats, Estimated Value
# [6] = liver, 100 mg/kg PO, male Wistar rats, Estimated Value
# [7] = muscle, 100 mg/kg PO, male Wistar rats, Estimated Value
# [8] = prostate, 100 mg/kg PO, male Wistar rats, Estimated Value
# [9] = spleen, 100 mg/kg PO, male Wistar rats, Estimated Value
compound,measurement,setting,value
COc1cc(Nc2ncnc(Nc3cc4c(cn3)NC(=O)C(C)(C)O4)n2)cc(OC)c1OC [MT-SYK-03],IC50,[1],550 nM
same,Bone concentration,"[2]; bone, 100 mg/kg PO, male Wistar rats, 2 h, individual animals",433 ng/mL and 576 ng/mL
same,Bone concentration,"[2]; bone, 100 mg/kg PO, male Wistar rats, 8 h, individual animals",1290 ng/mL and 681 ng/mL and 153 ng/mL
same,Bone concentration,"[2]; bone, 100 mg/kg PO, male Wistar rats, 24 h, individual animals",8.28 ng/mL and 19.9 ng/mL and 14.5 ng/mL
same,Joint concentration,"[2]; joint, 100 mg/kg PO, male Wistar rats, 2 h, individual animals",584 ng/mL and 631 ng/mL
same,Joint concentration,"[2]; joint, 100 mg/kg PO, male Wistar rats, 8 h, individual animals",1100 ng/mL and 673 ng/mL and 216 ng/mL
same,Joint concentration,"[2]; joint, 100 mg/kg PO, male Wistar rats, 24 h, individual animals",12.2 ng/mL and 20.4 ng/mL and 8.49 ng/mL
same,Kidney concentration,"[2]; kidney, 100 mg/kg PO, male Wistar rats, 2 h, individual animals",2880 ng/mL and 3160 ng/mL
same,Kidney concentration,"[2]; kidney, 100 mg/kg PO, male Wistar rats, 8 h, individual animals",1200 ng/mL and 375 ng/mL and 260 ng/mL
same,Kidney concentration,"[2]; kidney, 100 mg/kg PO, male Wistar rats, 24 h, individual animals",5.30 ng/mL and 72.0 ng/mL and 8.51 ng/mL
same,Liver concentration,"[2]; liver, 100 mg/kg PO, male Wistar rats, 2 h, individual animals",4700 ng/mL and 6610 ng/mL
same,Liver concentration,"[2]; liver, 100 mg/kg PO, male Wistar rats, 8 h, individual animals",1860 ng/mL and 635 ng/mL and 442 ng/mL
same,Liver concentration,"[2]; liver, 100 mg/kg PO, male Wistar rats, 24 h, individual animals",7.95 ng/mL and 115 ng/mL and 12.8 ng/mL
same,Kp,"[2]; male, Wistar, bone and cartilage tissues, rats, single oral administration, read-out: Exposure in bone and cartilage tissues relative to plasma",3
same,concentration at 2 h,"[2]; male, Wistar, bone, bone, 100 mg/kg PO, male Wistar rats, 2 h, individual animals, read-out: Bone concentration",327 ng/mL
same,concentration at 2 h,"[2]; male, Wistar, bone, bone, 100 mg/kg PO, male Wistar rats, 2 h, mean, read-out: Bone concentration, Mean",445 ng/mL
same,concentration at 8 h,"[2]; male, Wistar, bone, bone, 100 mg/kg PO, male Wistar rats, 8 h, mean, read-out: Bone concentration, Mean",708 ng/mL
same,concentration at 24 h,"[2]; male, Wistar, bone, bone, 100 mg/kg PO, male Wistar rats, 24 h, mean, read-out: Bone concentration, Mean",14.2 ng/mL
same,concentration at 2 h,"[2]; male, Wistar, joint, joint, 100 mg/kg PO, male Wistar rats, 2 h, individual animals, read-out: Joint concentration",470 ng/mL
same,concentration at 2 h,"[2]; male, Wistar, joint, joint, 100 mg/kg PO, male Wistar rats, 2 h, mean, read-out: Joint concentration, Mean",562 ng/mL
same,concentration at 8 h,"[2]; male, Wistar, joint, joint, 100 mg/kg PO, male Wistar rats, 8 h, mean, read-out: Joint concentration, Mean",663 ng/mL
same,concentration at 24 h,"[2]; male, Wistar, joint, joint, 100 mg/kg PO, male Wistar rats, 24 h, mean, read-out: Joint concentration, Mean",13.7 ng/mL
same,concentration at 2 h,"[2]; male, Wistar, kidney, kidney, 100 mg/kg PO, male Wistar rats, 2 h, individual animals, read-out: Kidney concentration",2350 ng/mL
same,concentration at 2 h,"[2]; male, Wistar, kidney, kidney, 100 mg/kg PO, male Wistar rats, 2 h, mean, read-out: Kidney concentration, Mean",2800 ng/mL
same,concentration at 8 h,"[2]; male, Wistar, kidney, kidney, 100 mg/kg PO, male Wistar rats, 8 h, mean, read-out: Kidney concentration, Mean",612 ng/mL
same,concentration at 24 h,"[2]; male, Wistar, kidney, kidney, 100 mg/kg PO, male Wistar rats, 24 h, mean, read-out: Kidney concentration, Mean",28.6 ng/mL
same,concentration at 2 h,"[2]; male, Wistar, liver, liver, 100 mg/kg PO, male Wistar rats, 2 h, individual animals, read-out: Liver concentration",4450 ng/mL
same,concentration at 2 h,"[2]; male, Wistar, liver, liver, 100 mg/kg PO, male Wistar rats, 2 h, mean, read-out: Liver concentration, Mean",5250 ng/mL
same,concentration at 8 h,"[2]; male, Wistar, liver, liver, 100 mg/kg PO, male Wistar rats, 8 h, mean, read-out: Liver concentration, Mean",979 ng/mL
same,concentration at 24 h,"[2]; male, Wistar, liver, liver, 100 mg/kg PO, male Wistar rats, 24 h, mean, read-out: Liver concentration, Mean",45.3 ng/mL
same,concentration at 2 h,"[2]; male, Wistar, muscle, muscle, 100 mg/kg PO, male Wistar rats, 2 h, individual animals, read-out: Muscle concentration",456 ng/mL
same,concentration at 2 h,"[2]; male, Wistar, muscle, muscle, 100 mg/kg PO, male Wistar rats, 2 h, mean, read-out: Muscle concentration, Mean",436 ng/mL
same,concentration at 8 h,"[2]; male, Wistar, muscle, muscle, 100 mg/kg PO, male Wistar rats, 8 h, individual animals, read-out: Muscle concentration",160 ng/mL
same,concentration at 8 h,"[2]; male, Wistar, muscle, muscle, 100 mg/kg PO, male Wistar rats, 8 h, mean, read-out: Muscle concentration, Mean",120 ng/mL
same,concentration at 24 h,"[2]; male, Wistar, muscle, muscle, 100 mg/kg PO, male Wistar rats, 24 h, individual animals, read-out: Muscle concentration",4.68 ng/mL
same,concentration at 24 h,"[2]; male, Wistar, muscle, muscle, 100 mg/kg PO, male Wistar rats, 24 h, mean, read-out: Muscle concentration, Mean",6.8 ng/mL
same,concentration at 2 h,"[2]; male, Wistar, prostate, prostate, 100 mg/kg PO, male Wistar rats, 2 h, individual animals, read-out: Prostate concentration",1070 ng/mL
same,concentration at 2 h,"[2]; male, Wistar, prostate, prostate, 100 mg/kg PO, male Wistar rats, 2 h, mean, read-out: Prostate concentration, Mean",1260 ng/mL
same,concentration at 8 h,"[2]; male, Wistar, prostate, prostate, 100 mg/kg PO, male Wistar rats, 8 h, mean, read-out: Prostate concentration, Mean",251 ng/mL
same,concentration at 24 h,"[2]; male, Wistar, prostate, prostate, 100 mg/kg PO, male Wistar rats, 24 h, individual animals, read-out: Prostate concentration",21.6 ng/mL
same,concentration at 24 h,"[2]; male, Wistar, prostate, prostate, 100 mg/kg PO, male Wistar rats, 24 h, mean, read-out: Prostate concentration, Mean",21.6 ng/mL
same,concentration at 2 h,"[2]; male, Wistar, spleen, spleen, 100 mg/kg PO, male Wistar rats, 2 h, individual animals, read-out: Spleen concentration",2060 ng/mL
same,concentration at 2 h,"[2]; male, Wistar, spleen, spleen, 100 mg/kg PO, male Wistar rats, 2 h, mean, read-out: Spleen concentration, Mean",1910 ng/mL
same,concentration at 8 h,"[2]; male, Wistar, spleen, spleen, 100 mg/kg PO, male Wistar rats, 8 h, mean, read-out: Spleen concentration, Mean",374 ng/mL
same,concentration at 24 h,"[2]; male, Wistar, spleen, spleen, 100 mg/kg PO, male Wistar rats, 24 h, individual animals, read-out: Spleen concentration",30.3 ng/mL
same,concentration at 24 h,"[2]; male, Wistar, spleen, spleen, 100 mg/kg PO, male Wistar rats, 24 h, mean, read-out: Spleen concentration, Mean",30.3 ng/mL
same,Muscle concentration,"[2]; muscle, 100 mg/kg PO, male Wistar rats, 2 h, individual animals",435 ng/mL and 416 ng/mL
same,Muscle concentration,"[2]; muscle, 100 mg/kg PO, male Wistar rats, 8 h, individual animals",107 ng/mL and 93.2 ng/mL
same,Muscle concentration,"[2]; muscle, 100 mg/kg PO, male Wistar rats, 24 h, individual animals",8.92 ng/mL and BQL
same,Prostate concentration,"[2]; prostate, 100 mg/kg PO, male Wistar rats, 2 h, individual animals",1200 ng/mL and 1500 ng/mL
same,Prostate concentration,"[2]; prostate, 100 mg/kg PO, male Wistar rats, 8 h, individual animals",500 ng/mL and 154 ng/mL and 98.0 ng/mL
same,Prostate concentration,"[2]; prostate, 100 mg/kg PO, male Wistar rats, 24 h, individual animals",BQL
same,Cmax,[2]; [3],708 ng/mL
same,Tmax,[2]; [3],8 h
same,AUC,[2]; [3],9680 ng·h/mL
same,Kp,"[2]; bone, 100 mg/kg PO, male Wistar rats, Estimated Value, read-out: AUC24/AUC24 (plasma)",2.5
same,Cmax,[2]; [4],663 ng/mL
same,Tmax,[2]; [4],8 h
same,AUC,[2]; [4],9650 ng·h/mL
same,Kp,"[2]; joint, 100 mg/kg PO, male Wistar rats, Estimated Value, read-out: AUC24/AUC24 (plasma)",2.49
same,AUC(0-inf),[2]; [5],18300 ng·h/mL
same,Cmax,[2]; [5],2800 ng/mL
same,Tmax,[2]; [5],2 h
same,AUC,[2]; [5],18100 ng·h/mL
same,Kp,"[2]; kidney, 100 mg/kg PO, male Wistar rats, Estimated Value, read-out: AUC24/AUC24 (plasma)",4.68
same,half-life,[2]; [5],3.38 h
same,AUC(0-inf),[2]; [6],32400 ng·h/mL
same,Cmax,[2]; [6],5250 ng/mL
same,Tmax,[2]; [6],2 h
same,AUC,[2]; [6],32100 ng·h/mL
same,Kp,"[2]; liver, 100 mg/kg PO, male Wistar rats, Estimated Value, read-out: AUC24/AUC24 (plasma)",8.3
same,half-life,[2]; [6],3.28 h
same,AUC(0-inf),[2]; [7],3150 ng·h/mL
same,Cmax,[2]; [7],436 ng/mL
same,Tmax,[2]; [7],2 h
same,AUC,[2]; [7],3120 ng·h/mL
same,Kp,"[2]; muscle, 100 mg/kg PO, male Wistar rats, Estimated Value, read-out: AUC24/AUC24 (plasma)",0.805
same,half-life,[2]; [7],3.7 h
same,AUC(0-inf),[2]; [8],8080 ng·h/mL
same,Cmax,[2]; [8],1260 ng/mL
same,Tmax,[2]; [8],2 h
same,AUC,[2]; [8],7960 ng·h/mL
same,Kp,"[2]; prostate, 100 mg/kg PO, male Wistar rats, Estimated Value, read-out: AUC24/AUC24 (plasma)",2.05
same,half-life,[2]; [8],3.89 h
same,AUC(0-inf),[2]; [9],12200 ng·h/mL
same,Cmax,[2]; [9],1910 ng/mL
same,Tmax,[2]; [9],2 h
same,AUC,[2]; [9],12000 ng·h/mL
same,Kp,"[2]; spleen, 100 mg/kg PO, male Wistar rats, Estimated Value, read-out: AUC24/AUC24 (plasma)",3.1
same,half-life,[2]; [9],3.81 h
same,Spleen concentration,"[2]; spleen, 100 mg/kg PO, male Wistar rats, 2 h, individual animals",1420 ng/mL and 2260 ng/mL
same,Spleen concentration,"[2]; spleen, 100 mg/kg PO, male Wistar rats, 8 h, individual animals",726 ng/mL and 129 ng/mL and 268 ng/mL
same,Spleen concentration,"[2]; spleen, 100 mg/kg PO, male Wistar rats, 24 h, individual animals",BQL
